Assay results: patent US20100189683A1, “Pulsatile Dosing of Gossypol for Treatment of Disease” (Ascenta Therapeutics, Inc., priority 2008, published 2010)
Marks after values point to notes of the source that are not given here.

Test system: patients with advanced cancer
Assay: Clinical efficacy (stable disease for 60 days or more) of (−)-gossypol by dosing schedule
Format: in vivo, human
Procedure: Following (−)-gossypol administration to patients with advanced cancer, clinical efficacy (e.g., patients having stable disease for 60 days or more) was monitored according to the following dosing schedules: “Daily” dosing: 5 to 60 mg/day of (−)-gossypol on 21 days per 28 day cycle; “BID×3d” dosing: 30 to 80 mg BID of (−)-gossypol on 3 consecutive days (e.g., Monday-Tuesday-Wednesday) repeated every other week per 28 day cycle; and “Weekly” dosing: 80 to 200 mg of (−)-gossypol once weekly per 28 day cycle. […] Tumor types represented in this study included: non-small cell lung cancer, non-Hodgkin lymphoma, chronic lymphocytic leukemia/small lymphocytic lymphoma, colon cancer, breast cancer, small cell lung cancer, head and neck cancer, sarcoma, hepatocellular cancer, pancreatic cancer, esophageal cancer, cholangiocarcinoma, carcinoid/neuroendocrine cancer, Hodgkin's lymphoma, endometrial cancer, adrenal cancer, melanoma, gastrointestinal stromal tumor, renal cancer, bladder cancer, and ovarian cancer.

SMILES: Cc1cc2c(C(C)C)c(O)c(O)c(C=O)c2c(O)c1-c1c(C)cc2c(C(C)C)c(O)c(O)c(C=O)c2c1O [(−)-gossypol]
- Median # (%) of patients with stable disease ≧60 days (BID × 3 d, N = 21): 6 (24) # (%)
- Median duration of days of stable disease (range) (BID × 3 d, N = 21): 180 (72-443) days
- Median # (%) of patients with stable disease ≧60 days (Daily, N = 38): 6 (16) # (%)
- Median duration of days of stable disease (range) (Daily, N = 38): 82 (56-341) days
- Median # (%) of patients with stable disease ≧60 days (Weekly, N = 12): 2 (13) # (%)
- Median duration of days of stable disease (range) (Weekly, N = 12): 69 (58-80) days
- Median duration of days of stable disease (pulsatile dosing (BID×3d) as compared to continuous daily dosing): longer median duration of days of stable disease
